Converted amounts (≈) assume the structure as drawn. Where two headings read alike, the source gives them in different places.
Columns and labels:
[1] = system: Candida albicans isolates; test: MIC/MFC microtiter broth dilution; type: cell-based; settings: NB-002 as μg CPC/ml
Alternaria spp. = test: MIC against rare onychomycosis pathogens (CLSI M 38-A); type: cell-based; settings: 3 isolates; NB-002 as μg CPC/ml
Source text: (§1) Methods: All fungi were from patients, many of which had onychomycosis or another tinea infection.

Aspergillus spp. = test: as above; type: cell-based; settings: 5 isolates; NB-002 as μg CPC/ml
Source text: as §1

Chaetomium spp. = test: as above; type: cell-based; settings: 3 isolates; NB-002 as μg CPC/ml
Source text: as §1

Curvularia spp. = test: as above; type: cell-based; settings: 3 isolates; NB-002 as μg CPC/ml
Source text: as §1

Epicoccum nigrum = test: as above; type: cell-based; settings: 3 isolates; NB-002 as μg CPC/ml
Source text: as §1

Paecilomyces spp. = test: as above; type: cell-based; settings: 4 isolates; NB-002 as μg CPC/ml
Source text: as §1

Phoma sp. = test: as above; type: cell-based; settings: 3 isolates; NB-002 as μg CPC/ml
Source text: as §1

Scedosporium spp. = test: as above; type: cell-based; settings: 5 isolates; NB-002 as μg CPC/ml
Source text: as §1

Scopulariopsis spp. = test: as above; type: cell-based; settings: 5 isolates; NB-002 as μg CPC/ml
Source text: as §1

Scytalydium spp. = test: as above; type: cell-based; settings: 10 isolates; NB-002 as μg CPC/ml
Source text: as §1

Trichophyton soundanense = test: as above; type: cell-based; settings: 3 isolates; NB-002 as μg CPC/ml
Source text: as §1

Trichophyton verrucosum = test: as above; type: cell-based; settings: 3 isolates; NB-002 as μg CPC/ml
Source text: as §1

[2] = system: Trichophyton mentagrophytes; test: MIC/MFC microtiter broth dilution; type: cell-based; settings: for MIC90 / MIC50: Trichophyton mentagrophytes; for MIC50: read-out: MIC50; for MFC50 / MFC90 / MIC range: n = 14 isolates, NB-002 as μg CPC/ml
Epidermophyton floccosum = test: MIC/MFC microtiter broth dilution; type: cell-based; settings: n = 6 isolates; NB-002 as μg CPC/ml
Trichophyton tonsurans = test: MIC/MFC microtiter broth dilution; type: cell-based
Microsporum canis = test: MIC/MFC microtiter broth dilution; type: cell-based; settings: M. canis n = 10 (tinea capitis species)
T. violaceum = test: MIC against species that cause tinea capitis; type: cell-based; settings: T. violaceum n = 10
M. audouinii = test: MIC against species that cause tinea capitis; type: cell-based; settings: M. audouinii n = 10
[3] = cited from earlier work
[4] = Azole-Resistant isolates (n = 24)
[5] = Azole-Susceptible isolates (n = 10)
[6] = T. tonsurans n = 10 (tinea capitis species)

SMILES: C[C@@H]1[C@H](O)[C@@H](C)/C=C/C=C/C=C/C=C/C=C/C=C/C=C/[C@H](O[C@@H]2O[C@H](C)[C@@H](O)[C@H](N)[C@@H]2O)C[C@@H]2O[C@](O)(C[C@@H](O)C[C@@H](O)[C@H](O)CC[C@@H](O)C[C@@H](O)CC(=O)O[C@H]1C)C[C@H](O)[C@H]2C(=O)O [Amphotericin B]
- MFC90 [1, 4]: 4 µg/mL (≈ 4.33 µM)
- MIC90 [1, 4]: 2 µg/mL (≈ 2.16 µM)
- MFC90 [1, 5]: 2 µg/mL (≈ 2.16 µM)
- MIC90 [1, 5]: 2 µg/mL (≈ 2.16 µM)
- MIC range (Alternaria spp.): 1 µg/mL (≈ 1.08 µM)
- MIC range (Aspergillus spp.): 1 to 4 µg/mL
- MIC range (Chaetomium spp.): 0.5 to 4 µg/mL
- MIC range (Curvularia spp.): 0.125 to 1 µg/mL
- MIC range (Epicoccum nigrum): 0.25 to 1 µg/mL
- MIC range (Paecilomyces spp.): >16 µg/mL
- MIC range (Phoma sp.): 0.5 to 2 µg/mL
- MIC range (Scedosporium spp.): >16 µg/mL
- MIC range (Scopulariopsis spp.): >16 µg/mL
- MIC range (Scytalydium spp.): 0.5 to 1 µg/mL
- MIC range (Trichophyton soundanense): 0.125 to 0.25 µg/mL
- MIC range (Trichophyton verrucosum): 0.125 to 0.25 µg/mL

SMILES: Clc1ccc(COC(Cn2ccnc2)c2ccc(Cl)cc2Cl)cc1 (stereo not drawn) [Econazole]
- MIC90 [2]: 0.25 µg/mL (≈ 0.655 µM)
- MIC50 [2]: 0.25 µg/mL (≈ 0.655 µM)
- MFC50 [2]: 8 µg/mL (≈ 21 µM)
- MFC90 [2]: >16 µg/mL
- MIC range [2]: 0.125 to 0.25 µg/mL
- MFC Range (Epidermophyton floccosum): 0.0625 to 4 µg/mL
- MIC range (Epidermophyton floccosum): 0.0625 to 0.125 µg/mL

SMILES: OC(Cn1cncn1)(Cn1cncn1)c1ccc(F)cc1F [Fluconazole]
- MFC90 [1, 4]: >64 µg/mL
- MFC90 [1, 5]: >64 µg/mL
- MIC90 ([1]; Candida albicans, Azole-Resistant isolates (n = 24), read-out: MIC90): > 64 µg/mL
- MIC90 ([1]; Candida albicans, Azole-Susceptible isolates (n = 10), read-out: MIC90): 0.5 µg/mL (≈ 1.63 µM)

SMILES: COC1=CC(=O)C[C@@H](C)[C@]12Oc1c(Cl)c(OC)cc(OC)c1C2=O [Griseofulvin]
- MIC90 [2]: 2 µg/mL (≈ 5.67 µM)
- MIC50 [2]: 0.5 µg/mL (≈ 1.42 µM)
- MFC50 [2]: 8 µg/mL (≈ 22.7 µM)
- MFC90 [2]: >16 µg/mL
- MIC range [2]: 0.25 to 4 µg/mL
- MFC Range (Epidermophyton floccosum): 1 to 16 µg/mL
- MIC range (Epidermophyton floccosum): 1 to 2 µg/mL
- MIC range (Trichophyton tonsurans; T. tonsurans (n = 6), NB-002 as μg CPC/ml): 0.5 to 1 µg/mL
- MIC50 (Trichophyton tonsurans; [6]): 0.5 µg/mL (≈ 1.42 µM)
- MIC90 (Trichophyton tonsurans; [6]): 1 µg/mL (≈ 2.83 µM)
- MIC range (Trichophyton tonsurans; T. tonsurans n = 10 (tinea capitis species), in µg/mL): 0.5-1.0
- MIC50 (Microsporum canis): 0.25 µg/mL (≈ 0.709 µM)
- MIC90 (Microsporum canis): 0.5 µg/mL (≈ 1.42 µM)
- MIC range (Microsporum canis; in µg/mL): 0.25-0.5
- MIC50 (T. violaceum): 4 µg/mL (≈ 11.3 µM)
- MIC90 (T. violaceum): 4 µg/mL (≈ 11.3 µM)
- MIC range (T. violaceum; in µg/mL): 1.0-8.0
- MIC50 (M. audouinii): 0.25 µg/mL (≈ 0.709 µM)
- MIC90 (M. audouinii): 1 µg/mL (≈ 2.83 µM)
- MIC range (M. audouinii; in µg/mL): 0.12-1.0

SMILES: CN(C/C=C/C#CC(C)(C)C)Cc1cccc2ccccc12.Cl [Terbinafine hydrochloride]
- solubility in ethanol ([3]; in words): soluble
- solubility in methanol and dichloromethane ([3]; in words): freely soluble
- solubility in water ([3]; in words): slightly soluble

SMILES: Clc1ccc(COC(Cn2ccnc2)c2ccc(Cl)cc2Cl)c(Cl)c1 (stereo not drawn) [miconazole]
- Ethanol Solubility [3]: 94 mg/mL
- Log P [3]: 6.1
- Soybean Solubility [3]: 74 mg/mL
- pKa [3]: 6.67
